Here are results for three molecules from patent USRE42890E1, “Furazanobenzimidazoles” (Basilea Pharmaceutica AG, priority 2003, dated 2011).

One test concerns Jurkat. Kind of test: MTS proliferation assay, Jurkat. Particulars: 72 h incubation, read-out: MTS proliferation assay IC 50 Jurkat. It is filed as cell-based, human. Summed up:
(§1)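 Absorbance at 492 nm after 3 h with MTS reagent gave the proliferation read-out. Before that, cells in RPMI-1640 complete medium (5% or 10% FCS) were treated 72 h with compound at four final concentrations, 0.3 to 10 μM.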
For orientation: Tetrazolium dyes change colour on reduction, which living cells bring about.
With `CC(=O)Nc1nonc1-c1nc2ccccc2n1CC(=O)c1ccccc1` [Example 40], the IC50 lay in the range of 100 to 1000 nM.

`Nc1nonc1-c1nc2ccccc2n1CC(=O)c1ccc(-c2ccccc2)cc1` [Example 26]: the IC50 is over 1000 nM.

Take `CON=C(Cn1c(-c2nonc2N)nc2ccccc21)c1cccc(OC)c1` (mixture of isomers) [Example 25]: the IC50 is 100 to 1000 nM.

The next test has as its system HeLa. Kind of test: MTS proliferation assay, HeLa. In kind it is cell-based, human. The following applies: 72 h incubation, read-out: MTS proliferation assay IC 50 HeLa. Summed up:
as §1
With `CC(=O)Nc1nonc1-c1nc2ccccc2n1CC(=O)c1ccccc1` [Example 40], the IC50 lay in the range of 100 to 1000 nM.

With `Nc1nonc1-c1nc2ccccc2n1CC(=O)c1ccc(-c2ccccc2)cc1` [Example 26], the IC50 was over 1000 nM.

Turning to `CON=C(Cn1c(-c2nonc2N)nc2ccccc21)c1cccc(OC)c1` (mixture of isomers) [Example 25], the IC50 is over 1000 nM.

A further test concerns MRC5. Kind of test: MTS proliferation assay, MRC5. Particulars: MRC5, 72 h incubation; read-out: MTS proliferation assay IC 50 MRC5. It is filed as cell-based. Summed up: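 Read-out: MTS absorbance at 492 nm after 3 h reagent incubation. Before that, cells grew 72 h at 37° C/7.5% CO2 with test compounds at final concentrations of 10 μM, 3 μM, 1 μM and 0.3 μM, added 24 h post-seeding.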
Take `CC(=O)Nc1nonc1-c1nc2ccccc2n1CC(=O)c1ccccc1` [Example 40]: the IC50 is over 1000 nM.

In the case of `Nc1nonc1-c1nc2ccccc2n1CC(=O)c1ccc(-c2ccccc2)cc1` [Example 26], the IC50 is over 1000 nM.

`CON=C(Cn1c(-c2nonc2N)nc2ccccc21)c1cccc(OC)c1` (mixture of isomers) [Example 25]: the IC50 was over 1000 nM.

Another test deals with adherent cells or suspension cells. Kind of test: Hoechst 33342 nuclear staining (fraction of apoptotic nuclei). Details: key: 0 relating to no activity; 1 relating to weak activity comprising less than 70% of the cells; score 2 relating to strong activity comprising more than 70% of the cells. The following applies: H460, conc 0.01 μm. It is filed as cell-based. The protocol:
Cell lines are cultured in RPMI-1640 tissue culture medium containing either 5% or 10% fetal calf serum, 0.05 mM 2-mercaptoethanol, 2 mM glutamine and penicillin/streptomycin 50 μg/ml (complete medium) (Sigma, Buchs, Switzerland). General growth conditions are 37° C. and 7.5% CO2.
This assay is performed in 96 well tissue culture plates. Appropriate number of cells (adherent cells: 3-5*10^3, suspension cells: 8-10*10^3) are being seeded out in 80 μl complete medium. Adherent cells are incubated for 24 h for proper spreading out before addition of test compounds while suspension cells are immediately treated with test compounds after seeding out. The test compounds are added in 20 μl complete medium containing max 5% DMSO. […] After 24 h or 48 h incubation at culture conditions, 10 μl medium containing Hoechst 33342 dye (Sigma B-2261) at 2-5 μg/ml are added to each well. The assay plates are then further incubated for 30 minutes and subsequently analyzed with a standard inverted fluorescence microscope.
The readout allows the determination of the fraction of apoptotic nuclei as well as other morphological criteria specific for apoptosis as a function of the treatment. The following scores are used: 0 relating to no activity, 1 relating to weak activity comprising less than 70% of the cells and score 2 relating to strong activity comprising more than 70% of the cells.
For `CC(=O)Nc1nonc1-c1nc2ccccc2n1CC(=O)c1ccccc1` [Example 40], the “Hoechst 33342 nuclear staining score” value worked out at 0.

`Nc1nonc1-c1nc2ccccc2n1CC(=O)c1ccc(-c2ccccc2)cc1` [Example 26]: the “Hoechst 33342 nuclear staining score” value is 0.

As for `CON=C(Cn1c(-c2nonc2N)nc2ccccc21)c1cccc(OC)c1` (mixture of isomers) [Example 25], the “Hoechst 33342 nuclear staining score” value amounted to 0.

The same test, now with this note: H460, conc 0.1 μm.
Regarding `CC(=O)Nc1nonc1-c1nc2ccccc2n1CC(=O)c1ccccc1` [Example 40], the “Hoechst 33342 nuclear staining score” value was 0.

Consider `Nc1nonc1-c1nc2ccccc2n1CC(=O)c1ccc(-c2ccccc2)cc1` [Example 26], for which the “Hoechst 33342 nuclear staining score” value is recorded as 0.

For `CON=C(Cn1c(-c2nonc2N)nc2ccccc21)c1cccc(OC)c1` (mixture of isomers) [Example 25], the “Hoechst 33342 nuclear staining score” value is reported as 0.

The same test, now with this note: H460, conc 1 μm.
For `CC(=O)Nc1nonc1-c1nc2ccccc2n1CC(=O)c1ccccc1` [Example 40], the “Hoechst 33342 nuclear staining score” value is listed as 0.

With `Nc1nonc1-c1nc2ccccc2n1CC(=O)c1ccc(-c2ccccc2)cc1` [Example 26], the “Hoechst 33342 nuclear staining score” value was 0.

Consider `CON=C(Cn1c(-c2nonc2N)nc2ccccc21)c1cccc(OC)c1` (mixture of isomers) [Example 25], for which the “Hoechst 33342 nuclear staining score” value is listed as 0.

The test is the same for the next values; noted with them: HeLa, conc 0.01 μm.
Regarding `CC(=O)Nc1nonc1-c1nc2ccccc2n1CC(=O)c1ccccc1` [Example 40], the “Hoechst 33342 nuclear staining score” value is 0.

As for `Nc1nonc1-c1nc2ccccc2n1CC(=O)c1ccc(-c2ccccc2)cc1` [Example 26], the “Hoechst 33342 nuclear staining score” value was found to be 0.

In the case of `CON=C(Cn1c(-c2nonc2N)nc2ccccc21)c1cccc(OC)c1` (mixture of isomers) [Example 25], the “Hoechst 33342 nuclear staining score” value was 0.

Staying with this test, now noted: HeLa, conc 0.1 μm.
For `CC(=O)Nc1nonc1-c1nc2ccccc2n1CC(=O)c1ccccc1` [Example 40], the “Hoechst 33342 nuclear staining score” value is 0.

For `Nc1nonc1-c1nc2ccccc2n1CC(=O)c1ccc(-c2ccccc2)cc1` [Example 26], the “Hoechst 33342 nuclear staining score” value was determined as 0.

`CON=C(Cn1c(-c2nonc2N)nc2ccccc21)c1cccc(OC)c1` (mixture of isomers) [Example 25]: the “Hoechst 33342 nuclear staining score” value turned out to be 0.

The same test, now with this note: HeLa, conc 1 μm.
As for `CC(=O)Nc1nonc1-c1nc2ccccc2n1CC(=O)c1ccccc1` [Example 40], the “Hoechst 33342 nuclear staining score” value is recorded as 0.

`Nc1nonc1-c1nc2ccccc2n1CC(=O)c1ccc(-c2ccccc2)cc1` [Example 26]: the “Hoechst 33342 nuclear staining score” value amounted to 0.

Take `CON=C(Cn1c(-c2nonc2N)nc2ccccc21)c1cccc(OC)c1` (mixture of isomers) [Example 25]: the “Hoechst 33342 nuclear staining score” value is 0.

The test is the same for the next values; noted with them: Jily, conc 0.01 μm.
Turning to `CC(=O)Nc1nonc1-c1nc2ccccc2n1CC(=O)c1ccccc1` [Example 40], the “Hoechst 33342 nuclear staining score” value stood at 0.

With `Nc1nonc1-c1nc2ccccc2n1CC(=O)c1ccc(-c2ccccc2)cc1` [Example 26], the “Hoechst 33342 nuclear staining score” value came to 0.

`CON=C(Cn1c(-c2nonc2N)nc2ccccc21)c1cccc(OC)c1` (mixture of isomers) [Example 25]: the “Hoechst 33342 nuclear staining score” value is 0.

Staying with this test, now noted: Jily, conc 0.1 μm.
`CC(=O)Nc1nonc1-c1nc2ccccc2n1CC(=O)c1ccccc1` [Example 40]: the “Hoechst 33342 nuclear staining score” value was determined as 0.

`Nc1nonc1-c1nc2ccccc2n1CC(=O)c1ccc(-c2ccccc2)cc1` [Example 26]: the “Hoechst 33342 nuclear staining score” value came out at 0.

For `CON=C(Cn1c(-c2nonc2N)nc2ccccc21)c1cccc(OC)c1` (mixture of isomers) [Example 25], the “Hoechst 33342 nuclear staining score” value was 0.

Still in this test, the particulars now being: Jily, conc 1 μm.
On to `CC(=O)Nc1nonc1-c1nc2ccccc2n1CC(=O)c1ccccc1` [Example 40], for which the “Hoechst 33342 nuclear staining score” value is recorded as 1 (1 relating to weak activity comprising less than 70% of the cells).

Turning to `Nc1nonc1-c1nc2ccccc2n1CC(=O)c1ccc(-c2ccccc2)cc1` [Example 26], the “Hoechst 33342 nuclear staining score” value amounted to 0.

Regarding `CON=C(Cn1c(-c2nonc2N)nc2ccccc21)c1cccc(OC)c1` (mixture of isomers) [Example 25], the “Hoechst 33342 nuclear staining score” value came out at 0.

The same test, now with this note: Jurkat, conc 0.01 μm.
As for `CC(=O)Nc1nonc1-c1nc2ccccc2n1CC(=O)c1ccccc1` [Example 40], the “Hoechst 33342 nuclear staining score” value came to 0.

For `Nc1nonc1-c1nc2ccccc2n1CC(=O)c1ccc(-c2ccccc2)cc1` [Example 26], the “Hoechst 33342 nuclear staining score” value worked out at 0.

`CON=C(Cn1c(-c2nonc2N)nc2ccccc21)c1cccc(OC)c1` (mixture of isomers) [Example 25]: the “Hoechst 33342 nuclear staining score” value came to 0.

The test is the same for the next values; noted with them: Jurkat, conc 0.1 μm.
As for `CC(=O)Nc1nonc1-c1nc2ccccc2n1CC(=O)c1ccccc1` [Example 40], the “Hoechst 33342 nuclear staining score” value turned out to be 0.

For `Nc1nonc1-c1nc2ccccc2n1CC(=O)c1ccc(-c2ccccc2)cc1` [Example 26], the “Hoechst 33342 nuclear staining score” value was determined as 0.

In the case of `CON=C(Cn1c(-c2nonc2N)nc2ccccc21)c1cccc(OC)c1` (mixture of isomers) [Example 25], the “Hoechst 33342 nuclear staining score” value was 0.

Staying with this test, now noted: Jurkat, conc 1 μm.
On to `CC(=O)Nc1nonc1-c1nc2ccccc2n1CC(=O)c1ccccc1` [Example 40], for which the “Hoechst 33342 nuclear staining score” value worked out at 0.

As to `Nc1nonc1-c1nc2ccccc2n1CC(=O)c1ccc(-c2ccccc2)cc1` [Example 26], the “Hoechst 33342 nuclear staining score” value worked out at 0.

Turning to `CON=C(Cn1c(-c2nonc2N)nc2ccccc21)c1cccc(OC)c1` (mixture of isomers) [Example 25], the “Hoechst 33342 nuclear staining score” value is 1 (1 relating to weak activity comprising less than 70% of the cells).

Still in this test, the particulars now being: MRC5, conc 0.01 μm.
Regarding `CC(=O)Nc1nonc1-c1nc2ccccc2n1CC(=O)c1ccccc1` [Example 40], the “Hoechst 33342 nuclear staining score” value is listed as 0.

As for `Nc1nonc1-c1nc2ccccc2n1CC(=O)c1ccc(-c2ccccc2)cc1` [Example 26], the “Hoechst 33342 nuclear staining score” value is on record as 0.

Take `CON=C(Cn1c(-c2nonc2N)nc2ccccc21)c1cccc(OC)c1` (mixture of isomers) [Example 25]: the “Hoechst 33342 nuclear staining score” value worked out at 0.

The same test, now with this note: MRC5, conc 0.1 μm.
Consider `CC(=O)Nc1nonc1-c1nc2ccccc2n1CC(=O)c1ccccc1` [Example 40], for which the “Hoechst 33342 nuclear staining score” value turned out to be 0.

For `Nc1nonc1-c1nc2ccccc2n1CC(=O)c1ccc(-c2ccccc2)cc1` [Example 26], the “Hoechst 33342 nuclear staining score” value was found to be 0.

With `CON=C(Cn1c(-c2nonc2N)nc2ccccc21)c1cccc(OC)c1` (mixture of isomers) [Example 25], the “Hoechst 33342 nuclear staining score” value was 0.

Still in this test, the particulars now being: MRC5, conc 1 μm.
Consider `CC(=O)Nc1nonc1-c1nc2ccccc2n1CC(=O)c1ccccc1` [Example 40], for which the “Hoechst 33342 nuclear staining score” value was 0.

For `Nc1nonc1-c1nc2ccccc2n1CC(=O)c1ccc(-c2ccccc2)cc1` [Example 26], the “Hoechst 33342 nuclear staining score” value was 0.

Take `CON=C(Cn1c(-c2nonc2N)nc2ccccc21)c1cccc(OC)c1` (mixture of isomers) [Example 25]: the “Hoechst 33342 nuclear staining score” value amounted to 0.

The same test, now with this note: PBLs, conc 0.01 μm.
For the molecule `CC(=O)Nc1nonc1-c1nc2ccccc2n1CC(=O)c1ccccc1` [Example 40], the “Hoechst 33342 nuclear staining score” value turned out to be 0.

As for `Nc1nonc1-c1nc2ccccc2n1CC(=O)c1ccc(-c2ccccc2)cc1` [Example 26], the “Hoechst 33342 nuclear staining score” value was found to be 0.

`CON=C(Cn1c(-c2nonc2N)nc2ccccc21)c1cccc(OC)c1` (mixture of isomers) [Example 25]: the “Hoechst 33342 nuclear staining score” value amounted to 0.

Still in this test, the particulars now being: PBLs, conc 0.1 μm.
Consider `CC(=O)Nc1nonc1-c1nc2ccccc2n1CC(=O)c1ccccc1` [Example 40], for which the “Hoechst 33342 nuclear staining score” value is reported as 0.

For `Nc1nonc1-c1nc2ccccc2n1CC(=O)c1ccc(-c2ccccc2)cc1` [Example 26], the “Hoechst 33342 nuclear staining score” value is listed as 0.

For the molecule `CON=C(Cn1c(-c2nonc2N)nc2ccccc21)c1cccc(OC)c1` (mixture of isomers) [Example 25], the “Hoechst 33342 nuclear staining score” value was found to be 0.

Staying with this test, now noted: PBLs, conc 1 μm.
With `CC(=O)Nc1nonc1-c1nc2ccccc2n1CC(=O)c1ccccc1` [Example 40], the “Hoechst 33342 nuclear staining score” value is on record as 0.

On to `Nc1nonc1-c1nc2ccccc2n1CC(=O)c1ccc(-c2ccccc2)cc1` [Example 26], for which the “Hoechst 33342 nuclear staining score” value is reported as 0.

As to `CON=C(Cn1c(-c2nonc2N)nc2ccccc21)c1cccc(OC)c1` (mixture of isomers) [Example 25], the “Hoechst 33342 nuclear staining score” value is reported as 0.
